Patent US10030020B2, “Spirocycle compounds and methods of making and using same” (Abide Therapeutics, Inc., priority 2016, dated 2018)
Read-outs that look alike come from different tables or passages of the source.

What was measured:
MAGL [1] = molecular target: MAGL (Homo sapiens (Human), UniProt Q99685); experiment: In vitro competitive activity-based protein profiling (human prefrontal cortex or cell membrane fractions; hMAGL expressed in HEK293T cells); type: biochemical
Method: In Vitro Competitive Activity-Based Protein Profiling (Human).
Proteomes (human prefrontal cortex or cell membrane fractions) (50 μL, 1.0-2.0 mg/mL total protein concentration) were preincubated with varying concentrations of inhibitors at 37° C. After 30 min, FP—Rh or JW912 (1.0 μL, 50 μM in DMSO) was added and the mixture was incubated for another 30 min at room temperature. Reactions were quenched with SDS loading buffer (15 μL-4×) and run on SDS-PAGE.
Recombinant Expression of Human MAGL in HEK293T Cells.
Cell lysates were diluted with mock proteomes for use in competitive ABPP experiments.

MAGL [2] = molecular target: T1, MAGL (Mus musculus (Mouse), UniProt O35678); experiment: Mouse brain proteomes from inhibitor treated mice (oral gavage, sacrificed 4 h after administration, ABPP analysis); type: in vivo, mouse (C57Bl/6J); conditions: 5 mg/kg oral gavage
T1 sequence (O35678 whole entry): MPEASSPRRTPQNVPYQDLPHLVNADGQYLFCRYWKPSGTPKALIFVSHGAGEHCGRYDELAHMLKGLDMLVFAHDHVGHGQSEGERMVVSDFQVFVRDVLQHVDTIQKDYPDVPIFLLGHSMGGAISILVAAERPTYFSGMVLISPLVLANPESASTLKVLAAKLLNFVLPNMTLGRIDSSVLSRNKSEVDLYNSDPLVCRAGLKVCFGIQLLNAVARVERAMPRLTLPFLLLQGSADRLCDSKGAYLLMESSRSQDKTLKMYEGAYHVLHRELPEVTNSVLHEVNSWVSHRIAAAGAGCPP
Summary of the method: (§1)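 Wild-type C57Bl/6J mice; p.o. gavage, vehicle e.g. PEG400/EtOH/PBS 7/2/1; 5 mg/kg. Brain harvested 4 h post-dose, proteome profiled by ABPP. Read-out: % inhibition.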

ABHD6 [3] = molecular target: T2, ABHD6 (Mus musculus (Mouse), UniProt Q8R2Y0); experiment: Mouse brain proteomes from inhibitor treated mice (oral gavage, sacrificed 4 h after administration, ABPP analysis), ABHD6; type: in vivo, mouse (C57Bl/6J); conditions: 5 mg/kg oral gavage
T2 sequence (Q8R2Y0 whole entry): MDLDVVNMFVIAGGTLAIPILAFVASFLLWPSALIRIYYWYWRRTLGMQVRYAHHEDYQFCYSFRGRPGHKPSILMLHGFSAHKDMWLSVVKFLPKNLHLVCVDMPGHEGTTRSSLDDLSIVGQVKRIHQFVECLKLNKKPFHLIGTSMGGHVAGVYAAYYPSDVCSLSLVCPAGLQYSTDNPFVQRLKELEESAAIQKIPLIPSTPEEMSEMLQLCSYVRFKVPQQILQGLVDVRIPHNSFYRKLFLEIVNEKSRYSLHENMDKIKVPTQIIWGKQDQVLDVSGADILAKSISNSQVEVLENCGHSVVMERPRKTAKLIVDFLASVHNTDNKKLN
Summary of the method: as §1

MAGL [4] = molecular target: T1, MAGL; experiment: In vitro competitive activity-based protein profiling (mouse brain membrane fraction or cell lysates), MAGL band; type: biochemical; conditions: for inhibition at 1 µM: read-out: MAGL % Inh 1 μM (mouse); for IC50: competitive ABPP
Method: In Vitro Competitive Activity-Based Protein Profiling.
Proteomes (mouse brain membrane fraction or cell lysates) (50 μL, 1.0 mg/mL total protein concentration) were preincubated with varying concentrations of inhibitors at 37° C. After 30 min, FP—Rh (1.0 μL, 50 μM in DMSO) was added and the mixture was incubated for another 30 min at 37° C. Reactions were quenched with SDS loading buffer (50 μL-4×) and run on SDS-PAGE.

FAAH [5] = molecular target: T3, FAAH (Mus musculus (Mouse), UniProt O08914); experiment: In vitro competitive activity-based protein profiling (mouse brain membrane fraction or cell lysates), FAAH band; type: biochemical; conditions: for inhibition at 1 µM: read-out: FAAH % Inh 1 μM (mouse); for IC50: competitive ABPP
T3 sequence (O08914 whole entry): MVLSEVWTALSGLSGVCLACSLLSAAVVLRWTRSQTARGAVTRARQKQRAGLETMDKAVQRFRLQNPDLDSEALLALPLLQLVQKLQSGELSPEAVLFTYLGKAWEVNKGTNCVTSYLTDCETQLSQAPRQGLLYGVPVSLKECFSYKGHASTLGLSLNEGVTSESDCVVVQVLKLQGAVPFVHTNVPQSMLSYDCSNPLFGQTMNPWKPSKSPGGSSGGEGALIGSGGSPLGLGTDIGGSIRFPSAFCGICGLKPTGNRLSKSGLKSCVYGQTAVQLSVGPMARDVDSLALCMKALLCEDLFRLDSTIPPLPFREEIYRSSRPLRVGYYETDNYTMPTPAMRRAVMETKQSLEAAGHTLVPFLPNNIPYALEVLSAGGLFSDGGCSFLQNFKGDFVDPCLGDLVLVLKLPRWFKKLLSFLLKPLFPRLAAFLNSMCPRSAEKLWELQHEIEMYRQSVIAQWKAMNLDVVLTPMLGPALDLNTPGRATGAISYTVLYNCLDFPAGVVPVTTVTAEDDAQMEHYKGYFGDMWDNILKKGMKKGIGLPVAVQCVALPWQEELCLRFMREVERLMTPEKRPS
Summary of the method: (§2)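 Mouse proteome samples (brain membrane fraction or cell lysate, 1.0 mg/mL protein) were pretreated with varying inhibitor concentrations and subsequently probed with fluorophosphonate-rhodamine, each step lasting 30 min at 37° C. Labelled proteins were separated by SDS-PAGE, and band fluorescence was imaged and quantified.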

ABHD6 [6] = molecular target: T2, ABHD6; experiment: In vitro competitive activity-based protein profiling (mouse brain membrane fraction or cell lysates), ABHD6 band; type: biochemical; conditions: for inhibition at 1 µM: read-out: ABHD6 % Inh 1 μM (mouse); for IC50: competitive ABPP
Summary of the method: as §2

FAAH [7] = molecular target: T3, FAAH; experiment: Mouse brain proteomes from inhibitor treated mice (oral gavage, sacrificed 4 h after administration, ABPP analysis), FAAH; type: in vivo, mouse (C57Bl/6J); conditions: 5 mg/kg oral gavage
Summary of the method: as §1

[8] = human proteome, competitive ABPP

MAGL (Homo sapiens (Human), UniProt Q99685), sequence (Q99685 whole entry): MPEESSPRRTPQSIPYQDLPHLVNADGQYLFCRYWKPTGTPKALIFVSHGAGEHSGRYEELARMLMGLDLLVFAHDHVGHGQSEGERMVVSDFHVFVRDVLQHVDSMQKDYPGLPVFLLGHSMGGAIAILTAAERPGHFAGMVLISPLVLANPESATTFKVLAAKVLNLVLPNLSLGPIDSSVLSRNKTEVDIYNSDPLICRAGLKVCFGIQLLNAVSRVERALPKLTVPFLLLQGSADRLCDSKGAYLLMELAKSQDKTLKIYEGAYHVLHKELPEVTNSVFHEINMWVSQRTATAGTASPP

| Structure (SMILES) | IC50 (MAGL [1]; [8]) [nM] | MAGL % Inh 5 mg/kg (mouse) (MAGL [2]) | ABHD6 % Inh 5 mg/kg (mouse) (ABHD6 [3]) | inhibition at 1 µM (MAGL [4]; mouse proteome) [%] | IC50 (MAGL [4]; mouse proteome) [nM] | inhibition at 1 µM (FAAH [5]; mouse proteome) [%] | IC50 (FAAH [5]; mouse proteome) [nM] | inhibition at 1 µM (ABHD6 [6]; mouse proteome) [%] | IC50 (ABHD6 [6]; mouse proteome) [nM] | FAAH % Inh 5 mg/kg (mouse) (FAAH [7]) | IC50 (MAGL [1]; human) [nM] | inhibition at 1 µM (MAGL [4]; mouse) [%] | inhibition at 1 µM (FAAH [5]; mouse) [%] | inhibition at 1 µM (ABHD6 [6]; mouse) [%] |
| --- | --- | --- | --- | --- | --- | --- | --- | --- | --- | --- | --- | --- | --- | --- |
| CN(C)C(=O)C1CCN(c2cc(C(F)(F)F)ccc2CN2CCCC23CCN(C(=O)OC(C(F)(F)F)C(F)(F)F)CC3)CC1 [Example 16, 1,1,1,3,3,3-Hexafluoropropan-2-yl 1-(2-(4-(dimethylcarbamoyl)piperidin-1-yl)-4-(trifluoromethyl)benzyl)-1,8-diazaspiro[4.5]decane-8-carboxylate] | < 100 | # (# is <25%) | # (# is <25%) | > 75 | < 100 | < 25 | > 1000 | < 25 | > 1000 | # (# is <25%) |  |  |  |  |
| O=C(OC(C(F)(F)F)C(F)(F)F)N1CCC2(CCCN2Cc2ccc(C(F)(F)F)cc2N2CCN(CCF)CC2)CC1 [Example 20, 1,1,1,3,3,3-Hexafluoropropan-2-yl 1-(2-(4-(2-fluoroethyl)piperazin-1-yl)-4-(trifluoromethyl)benzyl)-1,8-diazaspiro[4.5]decane-8-carboxylate] | < 100 | ## (## is equal to or greater than 25% but less than 75%) | # (# is <25%) |  | < 100 |  | > 1000 |  | > 1000 | # (# is <25%) |  |  |  |  |
| CN1CCCc2ccc(CN3CCCC34CCN(C(=O)OC(C(F)(F)F)C(F)(F)F)CC4)cc21 [Example 68, 1,1,1,3,3,3-Hexafluoropropan-2-yl 1-((1-methyl-1,2,3,4-tetrahydroquinolin-7-yl)methyl)-1,8-diazaspiro[4.5]decane-8-carboxylate] | < 100 | ### (### is ≥75%) | # (# is <25%) | > 75 | < 100 | < 25 | > 1000 | < 25 | > 1000 | # (# is <25%) |  |  |  |  |
| O=C(O)C1CCN(c2cc(C(F)(F)F)ccc2CN2CCC3(CCN(C(=O)OC(C(F)(F)F)C(F)(F)F)CC3)C2)CC1 [Example 119, 1-(2-((8-(((1,1,1,3,3,3-Hexafluoropropan-2-yl)oxy)carbonyl)-2,8-diazaspiro[4.5]decan-2-yl)methyl)-5-(trifluoromethyl)phenyl)piperidine-4-carboxylic acid] | < 100 | ### (### is ≥75%) | ### (### is ≥75%) | > 75 | < 100 | < 25 | > 1000 | ≥ 75 | 100 to 1000 | # (# is <25%) |  |  |  |  |
| O=C(O)C1CCN(c2cc(Cl)ccc2CN2CCCC23CCN(C(=O)OC(C(F)(F)F)C(F)(F)F)CC3)CC1 [Example 120, 1-(5-Chloro-2-((8-(((1,1,1,3,3,3-hexafluoropropan-2-yl)oxy)carbonyl)-1,8-diazaspiro[4.5]decan-1-yl)methyl)phenyl)piperidine-4-carboxylic acid] | < 100 | ### (### is ≥75%) | # (# is <25%) | > 75 | < 100 | < 25 | > 1000 | < 25 | > 1000 | # (# is <25%) |  |  |  |  |
| O=C(O)C1CCN(c2cc(C(F)(F)F)ccc2CN2CCCC23CCN(C(=O)OC(C(F)(F)F)C(F)(F)F)CC3)CC1 [Example 121, 1-(2-((8-(((1,1,1,3,3,3-Hexafluoropropan-2-yl)oxy)carbonyl)-1,8-diazaspiro[4.5]decan-1-yl)methyl)-5-(trifluoromethyl)phenyl)piperidine-4-carboxylic acid] | < 100 | ### (### is ≥75%) | # (# is <25%) | > 75 | < 100 | < 25 | > 1000 | < 25 | > 1000 | # (# is <25%) |  |  |  |  |
| O=C(O)C1CCN(c2cc(Cl)cc(CN3CCCC34CCN(C(=O)OC(C(F)(F)F)C(F)(F)F)CC4)c2)CC1 [Example 122, 1-(3-Chloro-5-((8-(((1,1,1,3,3,3-hexafluoropropan-2-yl)oxy)carbonyl)-1,8-diazaspiro[4.5]decan-1-yl)methyl)phenyl)piperidine-4-carboxylic acid] | < 100 | ### (### is ≥75%) | ## (## is equal to or greater than 25% but less than 75%) | > 75 | < 100 | < 25 | > 1000 | < 25 | > 1000 | ## (## is equal to or greater than 25% but less than 75%) |  |  |  |  |
| O=C(O)C1CCN(c2cc(CN3CCCC34CCN(C(=O)OC(C(F)(F)F)C(F)(F)F)CC4)cc(C(F)(F)F)c2)CC1 [Example 123, 1-(3-((8-(((1,1,1,3,3,3-Hexafluoropropan-2-yl)oxy)carbonyl)-1,8-diazaspiro[4.5]decan-1-yl)methyl)-5-(trifluoromethyl)phenyl)piperidine-4-carboxylic acid] | < 100 | ### (### is ≥75%) | ## (## is equal to or greater than 25% but less than 75%) | > 75 | < 100 | < 25 | > 1000 | < 25 | > 1000 | # (# is <25%) |  |  |  |  |
| O=C(OC(C(F)(F)F)C(F)(F)F)N1CCC2(CCCN2Cc2ccc(C(F)(F)F)c(N3CCOCC3)c2)CC1 [Example 133, 1,1,1,3,3,3-Hexafluoropropan-2-yl 1-(3-morpholino-4-(trifluoromethyl)benzyl)-1,8-diazaspiro[4.5]decane-8-carboxylate] | < 100 | ### (### is ≥75%) | # (# is <25%) | > 75 | < 100 | < 25 | > 1000 | < 25 | > 1000 | # (# is <25%) |  |  |  |  |
| O=C(O)C1COCCN1c1cc(CN2CCC3(CCN(C(=O)OC(C(F)(F)F)C(F)(F)F)CC3)C2)cc(C(F)(F)F)c1 (stereo not drawn) [Example 278] |  |  |  |  |  |  |  |  |  |  | < 100 | > 75 | < 25 | ≥ 75 |
| O=C(O)C1CCN(c2cc(CN3CCC4(CCN(C(=O)OC(C(F)(F)F)C(F)(F)F)CC4)C3)cc(C(F)(F)F)c2)CC1 [Example 279] |  |  |  |  |  |  |  |  |  |  | < 100 | > 75 | < 25 | ≥ 75 |
| C#Cc1ccc(CN2CCCC23CCN(C(=O)OC(C(F)(F)F)C(F)(F)F)CC3)cc1 [Example 280] |  |  |  |  |  |  |  |  |  |  | < 100 | > 75 | < 25 | < 25 |
